The values that follow come from ChEMBL document CHEMBL1155104, “Gallic acid-based indanone derivatives as anticancer agents” (Bioorg Med Chem Lett, 2008).

The nature of data set [1]: Cytotoxicity against human KB403 cells after 24 hrs by MTT assay. It is filed as functional, cell-based. The note with it: KB403, 24 h. Background: Tetrazolium assays rely on reduction of a dye to a coloured formazan, in cell work by metabolically active cells.
For a further data set, the system named is WRL68. Description: Cytotoxicity against human WRL68 cells after 24 hrs by MTT assay. It is filed as functional, cell-based. The note with it: WRL68, 24 h.
Another data set has as its system Caco-2. The data set can be described thus: Cytotoxicity against human CaCO2 cells after 24 hrs by MTT assay. The format is functional, cell-based. The settings on record: Caco-2, 24 h.
In the next data set the test system is HepG2. Description: Cytotoxicity against human HEPG2 cells after 24 hrs by MTT assay. It is filed as functional, cell-based. The settings on record: HepG2, 24 h.
In the next data set the test system is MCF7. Description: Cytotoxicity against human MCF7 cells after 24 hrs by MTT assay. The format is functional, cell-based. The settings on record: MCF7, 24 h.
Data set [2] is described as follows: Toxicity in human erythrocytes assessed as osmotic hemolysis at 258 uM. The format is cell-based. The note with it: erythrocyte.
Data set [3] in a line: Toxicity in human erythrocytes assessed as osmotic hemolysis. It is filed as cell-based. The note with it: erythrocyte.

The IC50 is the concentration that gives 50% inhibition.

Bounds are passed on as bounds.

Regarding `COc1cc(C2C/C(=N\O)c3cc(OC)c(OC)c(OC)c32)cc(OC)c1OC` (centres undefined), the IC50 was 136 µM in data set [1]; 223 µM in the data set on WRL68; 49.6 µM with Caco-2; 124 µM in the data set on HepG2; no less than 250 µM with MCF7.
Consider `COc1cc2c(c(OC)c1OC)-c1c(oc3c(OC)c(OC)c(OC)cc13)C2=O`, for which the IC50 in data set [1] was no less than 250 µM; in the data set on WRL68, 62.5 µM; in the data set on Caco-2, 112 µM; in the data set with HepG2 it was no less than 250 µM; with MCF7, 50 µM.
`COc1cc(C2CCc3cc(OC)c(OC)c(OC)c32)cc(OC)c1OC` (centres undefined): the IC50 in data set [1] is no less than 250 µM; in the data set on WRL68, 154 µM; with Caco-2 it was 115 µM; in the data set with HepG2, 89.7 µM; with MCF7, no less than 250 µM.
Consider `COc1cc(C2=C(O)C(=O)c3cc(OC)c(OC)c(OC)c32)cc(OC)c1OC`, for which the IC50 was no less than 250 µM in data set [1]; 124 µM in the data set with WRL68; no less than 250 µM in the data set with Caco-2; 74.6 µM with HepG2; no less than 250 µM with MCF7.
Consider `COc1cc2c(cc1OC)C(c1cc(OC)c(OC)c(OC)c1)CC2=O` (centres undefined), for which the IC50 in data set [1] was 140 µM; in the data set with WRL68, 196 µM; with Caco-2, 140 µM; in the data set on HepG2 it was 112 µM; in the data set with MCF7, no less than 250 µM.
Regarding `CC(=O)O[C@H]1C(=O)[C@@]2(C)[C@H]([C@H](OC(=O)c3ccccc3)[C@]3(O)C[C@H](OC(=O)[C@H](O)[C@@H](NC(=O)c4ccccc4)c4ccccc4)C(C)=C1C3(C)C)[C@]1(OC(C)=O)CO[C@@H]1C[C@@H]2O` [PACLITAXEL], the IC50 in data set [1] is 0.001 µM; with WRL68, 0.004 µM; in the data set with Caco-2, 0.008 µM; in the data set with HepG2, 0.009 µM; with MCF7, 0.006 µM.
For the compound `COc1cc(C2CC(=O)c3cc(OC)c(OC)c(OC)c32)cc(OC)c1OC` (centres undefined), the half-inhibitory concentration (IC50) is 10.3 µM in data set [1]; 12.8 µM in the data set on WRL68; no less than 250 µM in the data set with Caco-2; 9 µM with HepG2; 2.2 µM in the data set with MCF7. Also, in data set [2], the Activity entry is “Non-toxic”.
In the case of `COc1cc(OC)c(C2CC(=O)c3cc(OC)c(OC)c(OC)c32)c(OC)c1` (centres undefined), the IC50 turned out to be 12.9 µM in data set [1]; 0.022 µM in the data set on WRL68; 226 µM in the data set with Caco-2; 1.49 µM in the data set with HepG2; 211 µM in the data set with MCF7. The Activity result in data set [3] is listed as “Toxic”.
Regarding `COc1cc([C@@H]2c3cc4c(cc3[C@H](O)[C@H]3COC(=O)[C@H]23)OCO4)cc(OC)c1OC` [PODOFILOX], the IC50 is 20.5 µM in data set [1]; 4.8 µM in the data set with WRL68; 0.002 µM in the data set with Caco-2; 4.8 µM with HepG2; 8.5 µM with MCF7.
Regarding `COc1cccc(C2CC(=O)c3cc(OC)c(OC)c(OC)c32)c1` (centres undefined), the IC50 (in data set [1]; in the data set with WRL68; in the data set on Caco-2; in the data set on HepG2; with MCF7) was no less than 250 µM throughout.
On to `COc1cc(C2CC(O)c3cc(OC)c(OC)c(OC)c32)cc(OC)c1OC` (centres undefined), for which the IC50 turned out to be 192 µM in data set [1]; 192 µM in the data set on WRL68; 6.4 µM in the data set on Caco-2; 102 µM with HepG2; 244 µM in the data set on MCF7.
As for `COc1ccc(C2CC(=O)c3cc(OC)c(OC)c(OC)c32)c(OC)c1OC` (centres undefined), the IC50 in data set [1] is 1.54 µM; in the data set with WRL68, 0.023 µM; in the data set on Caco-2, 206 µM; with HepG2, no less than 250 µM; in the data set on MCF7, no less than 250 µM. Besides, in data set [3], the Activity result was “Toxic”.
For the compound `COc1cc2c(c(OC)c1OC)C(c1ccccc1)CC2=O` (centres undefined), the 50% inhibitory concentration (IC50) is 0.84 µM in data set [1]; no less than 250 µM in the data set on WRL68; no less than 250 µM with Caco-2; 188 µM in the data set with HepG2; no less than 250 µM with MCF7. The Activity result in data set [3] is given as “Toxic”.
